From ChEMBL document CHEMBL1158738, “Constituents of the leaves and twigs of Calyptranthes pallens collected from an experimental plot in Southern Florida” (J Nat Prod, 2005)
Converted amounts (≈) assume the structure as drawn.

Experiments:
[1] = tested on: Lu1; test: Cytotoxicity against human Lu1 cells; assay type: functional; settings: read-out: ED50 (the source's name)
[2] = tested on: LNCaP; test: Cytotoxicity against human LNCAP cells; assay type: functional; settings: read-out: ED50 (the source's name)
[3] = tested on: MCF7; test: Cytotoxicity against human MCF7 cells; assay type: functional; settings: read-out: ED50 (the source's name)
[4] = tested on: KB; test: Cytotoxicity against human KB cells; assay type: functional; settings: read-out: ED50 (the source's name)
[5] = Cytotoxicity against HUVEC; assay type: cell-based; settings: human, HUVEC cells; read-out: ED50 (the source's name)
[6] = Cytotoxicity against human telomerase reverse transcriptase human RPE1 cells; assay type: functional, TERT-RPE1; settings: RPE-1, read-out: ED50 (the source's name)

Row | SMILES | EC50 [1] [µg/mL] | EC50 [2] [µg/mL] | EC50 [3] [µg/mL] | EC50 [4] [µg/mL] | CC50 [5] [µg/mL] | EC50 [6] [µg/mL]
1 | CCCC(=O)c1c(O)c(C)c(OC)c(Cc2c(O)c(C(=O)CCC)c(O)c(C)c2OC)c1O | 19.4 (≈ 42.1 µM) | 6.6 (≈ 14.3 µM) | 7.3 (≈ 15.9 µM) | 2.7 (≈ 5.86 µM) | 6.1 (≈ 13.2 µM) | –
2 | CC1=CC[C@]2(C(=O)O)CC[C@]3(C)[C@H](CC[C@@H]4[C@@]5(C)CC[C@H](O)C(C)(C)[C@@H]5CC[C@]43C)[C@H]2[C@@H]1C | 12.9 (≈ 28.2 µM) | 7.3 (≈ 16 µM) | 9.7 (≈ 21.2 µM) | > 20 | 10.4 (≈ 22.8 µM) | –
3 | COc1cc([C@@H]2c3cc(O)c(OC)cc3C[C@@H](C)[C@H]2C)ccc1O [ISOGUAIACIN] | 15.7 (≈ 47.8 µM) | 11.8 (≈ 35.9 µM) | 12.4 (≈ 37.8 µM) | 6.4 (≈ 19.5 µM) | 14.7 (≈ 44.8 µM) | > 20
